Laboratory results from patent publication US6235929A, “Tripeptide α-ketoamides” (Georgia Tech Research Corporation, priority 1996, dated 2001).

Tests used:
Half-life in plasma = settings: unit inferred, unit assumed
[1] = molecular target: Calpain II from rabbit muscle; experiment: Calpain II inhibition, Suc-Leu-Tyr-AMC hydrolysis; type: biochemical
Experimental: HEPES, heparin, and A23187 were obtained from Calbiochem. […] Calpain II from rabbit muscle and cathepsin B were purchased from Sigma. Papain was purchased from Calbiochem.
(§1) Peptide α-ketoamides were assayed as reversible enzyme inhibitors. Various concentrations of inhibitors in Me2 SO were added to the assay mixture which contained buffer and substrate. The reaction was started by the addition of the enzyme and the hydrolysis rates were followed spectrophotometrically or fluorimetrically.
(§2) Calpain I from human erythrocytes and calpain II from rabbit were assayed using Suc-Leu-Tyr-AMC [Sasaki et al., J. Biol. Chem. 259, 12489-12494 (1984); incorporated herein by reference], and the AMC (7-amino-4-methylcoumarin) release was followed fluorimetrically (excitation at 380 nm, and emmision at 460 nm). Calpains were assayed in 25 mM Tris pH=8.0, 10 mM CaCl2. Fluorescence was followed using a Gilson FL-1A fluorometer or a Perkin-Elmer 203 Fluorescence spectrometer. Cathepsin B was assayed in 20 mM sodium acetate pH=5.2, 0.5 mM dithiothreitol using Bz-Phe-Val-Arg-p-nitroanilide as substrate. Alternately, cathepsin B was assayed with Z-Arg-Arg-AFC [Barrett and Kirschke, Methods Enzymol. […] Enzymatic hydrolysis rates were measured at various substrate and inhibitor concentrations, and KI values were determined by either Lineweaver-Burk plots or Dixon plots. […]

Half-life in liver = type: in vitro ADME; settings: unit inferred, unit assumed
[2] = molecular target: T1, Calpain I from human erythrocytes (Homo sapiens, UniProt P07384); experiment: Calpain I inhibition, Suc-Leu-Tyr-AMC hydrolysis; type: biochemical; settings: ratio of KI values
T1 construct: Calpain I was purified from human erythrocytes; from tissue; host or cells: human erythrocytes
T1 sequence (P07384 1-714): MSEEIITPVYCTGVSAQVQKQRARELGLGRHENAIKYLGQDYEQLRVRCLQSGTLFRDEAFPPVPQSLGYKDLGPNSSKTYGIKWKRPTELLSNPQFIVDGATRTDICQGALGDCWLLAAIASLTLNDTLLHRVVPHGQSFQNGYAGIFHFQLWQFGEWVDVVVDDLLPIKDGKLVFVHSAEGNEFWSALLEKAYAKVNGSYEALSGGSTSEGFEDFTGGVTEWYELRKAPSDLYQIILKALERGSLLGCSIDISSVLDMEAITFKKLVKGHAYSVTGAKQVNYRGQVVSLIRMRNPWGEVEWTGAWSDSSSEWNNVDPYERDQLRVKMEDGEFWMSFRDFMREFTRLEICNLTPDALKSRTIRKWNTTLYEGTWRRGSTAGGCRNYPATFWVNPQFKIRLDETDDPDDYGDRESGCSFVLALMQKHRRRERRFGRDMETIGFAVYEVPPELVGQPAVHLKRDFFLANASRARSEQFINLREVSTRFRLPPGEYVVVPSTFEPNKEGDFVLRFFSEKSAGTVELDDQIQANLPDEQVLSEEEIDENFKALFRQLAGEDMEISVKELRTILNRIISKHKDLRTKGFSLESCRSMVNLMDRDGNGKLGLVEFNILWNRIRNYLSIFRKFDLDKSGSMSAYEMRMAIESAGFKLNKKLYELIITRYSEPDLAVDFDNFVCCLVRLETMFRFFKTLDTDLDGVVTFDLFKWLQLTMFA
T1 sequence (P04632 1-268 partner): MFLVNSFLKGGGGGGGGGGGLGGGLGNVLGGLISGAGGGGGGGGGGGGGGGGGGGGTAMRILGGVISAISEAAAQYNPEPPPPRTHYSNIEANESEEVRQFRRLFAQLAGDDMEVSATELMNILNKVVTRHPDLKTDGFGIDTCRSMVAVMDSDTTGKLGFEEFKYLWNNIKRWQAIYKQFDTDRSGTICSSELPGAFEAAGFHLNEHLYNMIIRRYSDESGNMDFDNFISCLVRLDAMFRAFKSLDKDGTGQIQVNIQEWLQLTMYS
Experimental: (§3) HEPES, heparin, and A23187 were obtained from Calbiochem. Suc--Leu--Tyr--AMC and chromogenic substrates were obtained from Sigma Calpain I was purified from human erythrocytes according to the method of Kitahara (Kitahara et al., J. Biochem. 95, 1759-1766) omitting the Blue-Sepharose step. Calpain II from rabbit muscle and cathepsin B were purchased from Sigma. Papain was purchased from Calbiochem.
as §1
as §2, with “spectrometer.” for “spectrometer. Cathepsin B was assayed in 20 mM sodium acetate pH=5.2, 0.5 mM dithiothreitol using Bz-Phe-Val-Arg-p-nitroanilide as substrate. Alternately, cathepsin B was assayed with Z-Arg-Arg-AFC [Barrett and Kirschke, Methods Enzymol.”

cathepsin B = molecular target: T2, cathepsin B (Homo sapiens, UniProt P07858); experiment: Cathepsin B inhibition; type: biochemical
T2 construct: purchased Sigma
Experimental: as §3, §1
as §2, with “spectrometer.” for “spectrometer. Cathepsin B was assayed in 20 mM sodium acetate pH=5.2, 0.5 mM dithiothreitol using Bz-Phe-Val-Arg-p-nitroanilide as substrate. Alternately, cathepsin B was assayed with Z-Arg-Arg-AFC [Barrett and Kirschke, Methods Enzymol.”

t1/2 plasma (Half-life in plasma) [h] | t1/2 liver (Half-life in liver) [h] | SMILES | further results
> 1 | – | CC(C)C[C@H](NC(=O)OCc1ccccc1)C(=O)N[C@@H](Cc1ccccc1)C(=O)C(=O)NCCc1ccccc1 [Z-Leu-Phe-CONH(CH2)2 Ph, Z--Leu--Phe--CONH--(CH2)2 Ph] | –
> 1 | > 1 | CCNC(=O)C(=O)[C@H](Cc1ccccc1)NC(=O)[C@H](CC(C)C)NC(=O)OCc1ccccc1 [Z-Leu-Phe-CONH-Et, Z--Leu--Phe--CONH--Et] | –
> 1 | – | CC(C)CNC(=O)C(=O)[C@H](Cc1ccccc1)NC(=O)[C@H](CC(C)C)NC(=O)OCc1ccccc1 [Z-Leu-Phe-CONH-iBu, Z--Leu--Phe--CONH--iBu] | –
> 1 | > 1 | CCCCNC(=O)C(=O)C(Cc1ccccc1)NC(=O)C(CC(C)C)NC(=O)OCc1ccccc1 (stereo not drawn) [Z-Leu-Phe-CONH-nBu, Z--Leu--Phe--CONH--nBu] | –
> 1 | > 1 | CCCNC(=O)C(=O)C(Cc1ccccc1)NC(=O)C(CC(C)C)NC(=O)OCc1ccccc1 (stereo not drawn) [Z-Leu-Phe-CONH-nPr, Z--Leu--Phe--CONH--nPr] | –
0.0317 | – | CC(C)CC(NC(=O)OCc1ccccc1)C(=O)NC(Cc1ccccc1)C(=O)C(=O)OCc1ccccc1 (stereo not drawn) [Z-Leu-Phe-COOBz] | –
0.13 | – | CCOC(=O)C(=O)C(Cc1ccccc1)NC(=O)C(CC(C)C)NC(=O)OCc1ccccc1 (stereo not drawn) [Z-Leu-Phe-COOEt, Z--Leu--Phe--COOEt, reference compound] | –
> 1 | > 1 | CC(C)CC(NC(=O)OCc1ccccc1)C(=O)NC(Cc1ccccc1)C(=O)C(=O)O (stereo not drawn) [Z-Leu-Phe-COOH, reference compound] | –
0.128 | – | CCCCOC(=O)C(=O)[C@H](Cc1ccccc1)NC(=O)[C@H](CC(C)C)NC(=O)OCc1ccccc1 [Z-Leu-Phe-COOnBu] | –

Second part, the compound before the results:

SMILES | t1/2 plasma (Half-life in plasma) [h] | t1/2 liver (Half-life in liver) [h] | further results
CCOC(=O)C(=O)[C@H](CC)NC(=O)[C@H](CC(C)C)NC(=O)[C@H](CC(C)C)NC(=O)c1ccc2ccccc2c1 [2-NapCO-Leu-Leu-Abu-COOEt] | 0.417 | – | –
CCOC(=O)C(=O)C(CC)NC(=O)C(CC(C)C)NC(=O)C(CC(C)C)NS(=O)(=O)c1ccc2ccccc2c1 (stereo not drawn) [2-NapSO2-Leu-Leu-Abu-COOEt, reference compound] | > 1 | – | –
CC[C@H](NC(=O)[C@H](CC(C)C)NC(=O)OCc1ccccc1)C(=O)C(=O)NCCc1ccccc1 [Z-Leu-Abu-CONH--(CH2)2 -Ph, Z--Leu--Abu--CONH--(CH2)2 Ph] | – | – | KI Calpain II [1]: best inhibitor
CCC(NC(=O)C(CC(C)C)NC(=O)OCc1ccccc1)C(=O)C(=O)NCc1ccccc1 (stereo not drawn) [Z-Leu-Abu-CONH-Bzl, Z--Leu--Abu--CONH--Bzl] | > 1 | > 1 | –
CCNC(=O)C(=O)[C@H](CC)NC(=O)[C@H](CC(C)C)NC(=O)OCc1ccccc1 [Z-Leu-Abu-CONH-Et, Z--Leu--Abu--CONH--Et] | > 1 | > 1 | fold better inhibitor of calpain I than Z--Leu--Phe--CONH--Et [2]: 14 fold; KI Cath B (cathepsin B): best inhibitor
CCC(NC(=O)C(CC(C)C)NC(=O)OCc1ccccc1)C(=O)C(=O)NCC(C)C (stereo not drawn) [Z-Leu-Abu-CONH-iBu, Z--Leu--Abu--CONH--iBu] | > 1 | – | –
CCCCNC(=O)C(=O)C(CC)NC(=O)C(CC(C)C)NC(=O)OCc1ccccc1 (stereo not drawn) [Z-Leu-Abu-CONH-nBu, Z--Leu--Abu--CONH--nBu] | > 1 | > 1 | –
CCCNC(=O)C(=O)[C@H](CC)NC(=O)[C@H](CC(C)C)NC(=O)OCc1ccccc1 [Z-Leu-Abu-CONH-nPr, Z--Leu--Abu--CONH--nPr] | > 1 | > 1 | –
CCOC(=O)C(=O)[C@H](CC)NC(=O)[C@H](CC(C)C)NC(=O)OCc1ccccc1 [Z-Leu-Abu-COOEt, reference compound] | 0.0467 | – | –
CCC(NC(=O)C(CC(C)C)NC(=O)OCc1ccccc1)C(=O)C(=O)O (stereo not drawn) [Z-Leu-Abu-COOH, reference compound] | > 1 | > 1 | –
CCOC(=O)C(=O)C(CCSC)NC(=O)C(CC(C)C)NC(=O)OCc1ccccc1 (stereo not drawn) [Z-Leu-Met-COOEt] | 0.133 | – | –
CCCCC(NC(=O)C(CC(C)C)NC(=O)OCc1ccccc1)C(=O)C(=O)OCC (stereo not drawn) [Z-Leu-Nle-COOEt, reference compound] | 0.0617 | – | –
CCCC(NC(=O)C(CC(C)C)NC(=O)OCc1ccccc1)C(=O)C(=O)OCC (stereo not drawn) [Z-Leu-Nva-COOEt, reference compound] | 0.0467 | – | –
